Assay results from patent publication US20060063759A1, “Tricyclic steroid hormone nuclear receptor modulators” (priority 2002, published 2006).

What was measured:
human MR = target: T1, human MR (Homo sapiens, UniProt P08235); assay: Mineralocorticoid Receptor Binding Assay ([3H]-aldosterone); conditions: [3H]-aldosterone binding, human MR expressed in Sf9 cells; read-out: MR Ki
T1 construct: The full length human MR gene is cloned from a human kidney or human brain cDNA library; His tag from the pAcHLT vector (own knowledge); made in house; host or cells: Sf9 insect cells (baculovirus, pAcHLT transfer vector)
T1 sequence (P08235 1-984): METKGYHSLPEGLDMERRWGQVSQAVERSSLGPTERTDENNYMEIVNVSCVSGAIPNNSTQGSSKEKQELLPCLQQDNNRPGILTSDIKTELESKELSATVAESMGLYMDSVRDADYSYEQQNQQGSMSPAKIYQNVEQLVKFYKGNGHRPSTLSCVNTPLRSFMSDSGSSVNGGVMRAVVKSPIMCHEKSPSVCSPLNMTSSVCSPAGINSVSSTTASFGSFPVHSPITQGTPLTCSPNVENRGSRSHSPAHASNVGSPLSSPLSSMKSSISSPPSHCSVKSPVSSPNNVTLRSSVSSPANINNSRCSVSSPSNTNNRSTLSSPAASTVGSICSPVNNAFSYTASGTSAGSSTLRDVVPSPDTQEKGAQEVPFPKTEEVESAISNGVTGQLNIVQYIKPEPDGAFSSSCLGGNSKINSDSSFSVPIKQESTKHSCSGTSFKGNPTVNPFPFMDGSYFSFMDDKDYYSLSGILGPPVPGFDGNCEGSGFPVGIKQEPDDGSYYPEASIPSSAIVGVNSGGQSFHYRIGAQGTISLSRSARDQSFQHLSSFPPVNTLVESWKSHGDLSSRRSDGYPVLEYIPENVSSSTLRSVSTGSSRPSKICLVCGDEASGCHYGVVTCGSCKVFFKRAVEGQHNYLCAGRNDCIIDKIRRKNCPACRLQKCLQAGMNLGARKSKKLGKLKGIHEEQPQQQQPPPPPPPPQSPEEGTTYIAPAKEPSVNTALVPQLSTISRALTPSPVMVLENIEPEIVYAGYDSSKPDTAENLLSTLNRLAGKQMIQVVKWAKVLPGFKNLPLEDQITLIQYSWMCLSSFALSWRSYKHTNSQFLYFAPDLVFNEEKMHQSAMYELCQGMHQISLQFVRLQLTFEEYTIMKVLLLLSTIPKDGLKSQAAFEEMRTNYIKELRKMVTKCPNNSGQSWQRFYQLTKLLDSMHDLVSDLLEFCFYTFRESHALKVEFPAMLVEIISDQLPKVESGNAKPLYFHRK
How it was run: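 Lysate supernatant of Sf9 cells expressing full-length human MR (20-25 μg protein) was incubated with 0.5 nM [3H]-aldosterone and test compound in molybdate/Tris/phosphate/glycerol buffer, pH 7.5, ~16 h at 4 °C. Bound ligand was filtered and counted by scintillation; IC50 is the concentration halving [3H]-aldosterone binding.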

glucocorticoid receptor = target: T2, glucocorticoid receptor (Homo sapiens, UniProt P04150); assay: Glucocorticoid Receptor Binding Assay ([3H]-dexamethasone, A549 cell extract); conditions: [3H]-dexamethasone binding, read-out: GR Ki
T2 construct: containing 50-200 ug of A549 cell extract and 1.86 nM [^3H]-dexamethasone; host or cells: A549 human lung epithelial cells (sonicated cell extract)
T2 sequence (P04150 1-777): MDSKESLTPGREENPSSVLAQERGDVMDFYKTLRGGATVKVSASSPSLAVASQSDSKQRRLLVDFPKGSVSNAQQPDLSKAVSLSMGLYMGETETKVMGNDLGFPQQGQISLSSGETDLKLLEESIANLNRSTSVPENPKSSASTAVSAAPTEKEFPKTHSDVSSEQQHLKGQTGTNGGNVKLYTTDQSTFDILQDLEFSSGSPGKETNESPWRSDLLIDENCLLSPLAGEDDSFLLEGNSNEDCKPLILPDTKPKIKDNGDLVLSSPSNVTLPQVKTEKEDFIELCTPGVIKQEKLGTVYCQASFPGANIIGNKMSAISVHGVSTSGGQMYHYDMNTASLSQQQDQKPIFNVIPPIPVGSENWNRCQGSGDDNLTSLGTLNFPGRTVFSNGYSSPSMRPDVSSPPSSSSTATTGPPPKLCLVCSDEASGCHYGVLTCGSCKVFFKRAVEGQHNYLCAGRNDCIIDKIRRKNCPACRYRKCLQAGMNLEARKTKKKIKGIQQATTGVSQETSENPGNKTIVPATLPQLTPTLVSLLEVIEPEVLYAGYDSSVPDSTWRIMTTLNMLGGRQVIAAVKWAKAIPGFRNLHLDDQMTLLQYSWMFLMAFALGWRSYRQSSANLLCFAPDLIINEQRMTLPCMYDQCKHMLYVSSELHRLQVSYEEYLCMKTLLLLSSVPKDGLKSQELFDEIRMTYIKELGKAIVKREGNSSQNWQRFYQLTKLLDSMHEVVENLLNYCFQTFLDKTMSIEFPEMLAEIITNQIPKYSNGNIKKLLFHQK
How it was run: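 A549 cell extract (50–200 ug) incubated with 1.86 nM [3H]-dexamethasone and test compound for 16 h at 4 °C in Tris-HCl pH 7.2 buffer with glycerol and molybdate. Unbound radioligand removed by dextran-coated charcoal, then supernatant bound counts measured by scintillation.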

Row | Structure (SMILES) | Ki (human MR) [nM] | Ki (glucocorticoid receptor) [nM]
1 | COC(=O)c1ccc2c(c1)/C(=C\c1cccc(NS(C)(=O)=O)c1)c1ccccc1CO2 [Example 659] | < 1000 | < 10000
2 | CS(=O)(=O)Nc1cccc(C=C2c3ccccc3CCc3cc(F)cc(F)c32)c1 [Example 344] | < 500 | < 500
3 | COc1ccc2c(c1)COc1ccccc1C2C(C)c1cccc(NS(C)(=O)=O)c1 (racemic) [Example 752, N-{3-[1-(8-Methoxy-6,11-dihydro-dibenzo[b,e]oxepin-11-yl)-ethyl]-phenyl}-methanesulfonamide] | < 500 | < 500
4 | CCC(=C1c2ccc(C)cc2CCc2cc(C)ccc21)c1cccc(NS(C)(=O)=O)c1 [Example 772] | < 500 | < 500
5 | OCc1cccc(/C=C2\c3ccccc3CSc3ccccc32)c1 [Example 699] | < 500 | < 500
6 | Nc1nc2ccc(C=C3c4ccccc4CCc4ccccc43)cc2[nH]1 [Example 445] | < 500 | < 10000
7 | Cc1ccccc1CC1c2ccccc2CCc2ccccc21 [Example 282] | < 500 | < 500
8 | COc1cccc2c1COc1ccccc1/C2=C/c1cccc(NS(C)(=O)=O)c1 [Example 708] | < 500 | < 500
9 | CC(=C1c2ccc(Cl)cc2CCc2cc(Cl)ccc21)c1cccc(NS(C)(=O)=O)c1 [Example 777] | < 500 | < 500
10 | O=c1[nH]c2cc(/C=C3/c4ccccc4COc4cc(F)ccc43)ccc2o1 [Example 632] | < 500 | < 500
11 | CS(=O)(=O)Nc1cccc(/C=C2\c3ccccc3CS(=O)(=O)c3ccccc32)c1 [Example 264, N-[3-(10,10-Dioxo-10,11-dihydro-10λ^6-thia-dibenzo[a,d]cyclohepten-5-ylidenemethyl)-phenyl]-Methanesulfonamide] | < 1000 | < 10000
12 | CS(=O)(=O)Nc1cccc(/C=C2/c3ccccc3COc3cc(Cl)ccc32)c1 [Example 664] | < 500 | < 500
13 | Cc1ccc2c(c1)CCc1ccccc1/C2=C\c1ccc(NS(C)(=O)=O)cc1 [Example 318] | < 500 | < 1000
14 | Oc1ccc(/C=C2\c3ccc(F)cc3CCc3ncccc32)cc1 [Example 528] | < 500 | < 1000
15 | CS(=O)(=O)Nc1cccc(C=C2c3ccccc3CCc3cc(-c4ccccc4)ccc32)c1 [Example 412] | < 500 | < 1000
16 | O=c1[nH]c2ccc(/C=C3\c4ccccc4CCc4cc(C(F)(F)F)ccc43)cc2[nH]1 [Example 472] | < 500 | < 10000
17 | CC(=C1c2ccccc2CCc2ccccc21)c1cccc(NS(C)(=O)=O)c1 [Example 765] | < 500 | < 500
18 | Fc1ccc2c(c1)CCc1ncccc1/C2=C/c1cccc(C(F)F)c1 [Example 541] | < 500 | < 1000
19 | NC(=O)Nc1ccc(C=C2c3ccccc3CCc3ccccc32)cc1 [Example 129, [4-(10,11-Dihydro-dibenzo[a,d]cyclohepten-5-ylidenemethyl)-phenyl]-urea] | < 500 | < 500
20 | COc1ccc2c(c1)/C(=C/c1cccc(NS(C)(=O)=O)c1)c1ccccc1CC2 [Example 347] | < 500 | < 500

Further lines, results first:

Row | Ki (human MR) [nM] | Ki (glucocorticoid receptor) [nM] | Structure (SMILES)
21 | < 500 | < 1000 | CS(=O)(=O)Nc1cccc(C=C2c3ccccc3CCc3ncccc32)c1 [Example 505]
22 | < 500 | < 500 | CS(=O)(=O)Nc1cccc(/C=C2\c3ccccc3COc3ccccc32)c1 [Example 267, N-[3-(6H-Dibenzo[b,e]oxepine-11-ylidenemethyl)-phenyl]-methanesulfonamide]
23 | < 500 | < 10000 | CS(=O)(=O)Nc1cncc(C=C2c3ccccc3CCc3ccccc32)n1 [Example 233, N-[6-(10,11-Dihydro-dibenzo[a,d]cyclohepten-5-ylidenemethyl)-pyrazin-2-yl]-methanesulfonamide]
24 | < 500 | < 10000 | CS(=O)(=O)Nc1cccc(/C=C2/c3ccc(Cl)cc3CCc3ncccc32)c1 [Example 569]
25 | < 1000 | < 500 | CC(=O)Nc1cccc(/C=C2\c3ccccc3CSc3ccccc32)c1 [Example 691]
26 | < 500 | < 1000 | C(=C1c2ccccc2CCc2ccccc21)c1ccc2cc[nH]c2c1 [Example 219, 6-(10,11-Dihydro-dibenzo[a,d]cyclohepten-5-ylidenemethyl)-1H-indole]
27 | < 500 | < 500 | CS(=O)(=O)Nc1cccc(C=C2c3ccccc3CCc3c(Cl)cccc32)c1 [Example 205(b), N-[3-(1-Chloro-10,11-dihydro-dibenzo[a,d]cyclohepten-5-ylidenemethyl)-phenyl]-methanesulfonamide]
28 | < 500 | < 500 | O=c1[nH]c2cc(C=C3c4cccc(F)c4CCc4c(F)cccc43)ccc2o1 [Example 471]
29 | < 500 | < 500 | CS(=O)(=O)Nc1cccc(/C(F)=C2\c3ccccc3COc3ccccc32)c1 [Example 806]
30 | < 500 | < 500 | COc1ccc2c(c1)/C(=C/c1cccc(NS(C)(=O)=O)c1)c1ccccc1CO2 [Example 679]
31 | < 500 | < 10000 | CS(=O)(=O)NCc1ccc(/C=C2\c3ccccc3CCc3cc(Cl)ccc32)cc1 [Example 346]
32 | < 500 | < 10000 | O=c1[nH]c2ccc(C=C3c4ccccc4COc4ccccc43)cc2[nH]1 [Example 626]
33 | < 500 | < 10000 | Cc1ccccc1C=C1c2ccccc2CCc2ccccc21 [Example 130, 5-(2-Methyl-benzylidene)-10,11-dihydro-5H-dibenzo [a,d]cycloheptene]
34 | < 500 | < 10000 | CS(=O)(=O)Nc1cccc(/C=C2/c3ccccc3OCc3c(Cl)cccc32)c1 [Example 622]
35 | < 500 | < 1000 | C(=C1c2ccccc2CCc2ccccc21)c1ccccc1-c1cccnc1 [Example 228, 3-[2-(10,11-Dihydro-dibenzo[a,d]cyclohepten-5-ylidenemethyl)-phenyl]-pyridine]
36 | < 500 | < 10000 | N#Cc1ccc2c(c1)CCc1ccccc1/C2=C\c1ccc2[nH]c(=O)[nH]c2c1 [Example 456]
37 | < 500 | < 500 | CS(=O)(=O)Nc1cccc(/C=C2/c3ccccc3CCc3cccc(Cl)c32)c1 [Example 366]
38 | < 500 | < 500 | Nc1ccccc1/C=C1\c2ccc(F)cc2CCc2ncccc21 [Example 530]
39 | < 500 | < 500 | CS(=O)(=O)Nc1cccc(/C=C2\c3ccccc3OCc3c(F)cccc32)c1 [Example 732]
40 | < 500 | < 1000 | Cn1c(=O)[nH]c2cc(/C=C3\c4ccccc4COc4cc(F)ccc43)ccc21 [Example 635]
